Marks after values point to notes of the source that are not given here.
Tests used:
Format in all cases: biochemical
break light A = experiment: Molecular break light assay: cleavage of break light A by enediynes and Fe^+2-dependent agents
Procedure: Samples were analyzed with a FluoroMax-2 spectrofluorometer equipped with DataMax for Windows (Instruments S. A., Inc.; Edison, N.J.) and the temperature controlled (30° C., unless otherwise noted) by a Haake Circulator DC10. All samples were filtered prior to analysis and analyzed via a timebase scan (λex=485 nm, λEm=517 nm) in a Suprasil quartz cuvette (10 mm path) fitted with a magnetic stirring bar in a total volume of 2 mL. […] Total cleavage of the labeled oligonucleotide, confirmed by polyacrylamide gel electrophoresis (PAGE), was defined as the maximum fluorescence emission possible under saturated cleaving conditions. Emission units were converted to the amount of labeled oligonucleotide used within a procedure, thereby equating labeled oligonucleotide degradation as a function of the emission of fluorescence.
Enediyne antibiotics calicheamicin and esperamicin at varying concentrations (0.31, 0.78, 1.6, 3.2, 15.9, and 31.7 nM) were incubated in 40 mM Tris-HCl (pH 7.5) with 3.2 nM of the calicheamicin-specific labeled molecular break light oligonucleotide (A). DNA cleavage was initiated with the addition of 1 μL 100 mM dithiothreitol (“DTT”) to produce a final concentration of 50 μM DTT, and the reaction was monitored over 10 minutes via spectrofluorometry.
Pseudo-first order kinetic parameters were utilized to determine the initial velocities at each given enediyne concentration. Specifically, graphical representation of the data was based upon equation 2 where [A]t is the concentration of cleaved oligonucleotide at a given time (t) and [A]0 is the initial concentration of oligonucleotide in the assay. Least squares analysis gave the slope (k), or rate, which was converted to V by the relationship in equation 3. The maximum velocity achieved (Vmax) was then selected from the range of concentrations examined.
ln[A]t=−kt+ln[A]0 [Equation 2]
Bleomycin, an Fe^+2-dependent nucleic acid cleavage agent, is a natural metabolite from Streptomyces verticillus. Blenoxane (a mixture containing approximately 70% bleomycin A2 and 30% bleomycin B2) was dissolved in water & optically standardized (ε291=1.7×10^4M^−1 cm^−1). Bleomycin mediated cleavage was adapted from procedures outlined by Giloni et al. J. Biol. Chem. 256: 8608-8615 (1981). Several different concentrations of bleomycin (200 nM, 100 nM, 50 nM, 25 nM, 12.5 nM, 5 nM, and 2.5 nM) were incubated in 50 mM sodium phosphate, 2.5 mM ascorbate, at pH 7.5 and 37° C. with 3.2 nM of the molecular break light A.
The reaction was initiated by the addition of 65 mM Fe(II) and monitored over 5 minutes. This protocol was repeated with the addition of 5 mM sodium ascorbate to the above conditions. Pseudo-first order kinetic parameters were utilized to determine the initial velocities at each given bleomycin concentration as previously described.
In a first assay, 3.2 nM break light A was incubated in 40 mM Tris HCl and 2.5 mM ascorbate at 37° C. and pH 7.5. Cleavage was initiated by addition of MPE/Fe(II) in a 1.2:1 molar ratio to various concentrations. Final Fe(II) concentrations were 8 μM, 4 μM, 2 μM, 1 μM, 500 nM, 250 nM, and 125 nM.
In a second assay, 32 nM molecular break light A was incubated in 40 mM Tris and 2.5 mM sodium ascorbate at pH 7.5 and 37° C. Cleavage was initiated by addition of MPE/Fe(II) in a 1.2:1 molar ratio to various concentrations. Final Fe(II) concentrations were 50 nM, 125 nM, 250 nM, 500 nM, 1 μM, and 2 μM.
In a third assay, 32 nM break light A (calicheamicin-specific molecular break light oligonucleotide) was incubated in 40 mM Tris and 2.5 mM sodium ascorbate at pH 7.5 and 37° C.

break light B = experiment: Calicheamicin cleavage of break light B; conditions: calicheamicin with DTT
[1] = system: supercoiled pBlusecript plasmid DNA; experiment: Calicheamicin-induced cleavage of supercoiled plasmid DNA, protection by CalC (agarose gel)
Procedure: Prevention of cleavage by calicheamicin—protection by CalC was assessed. […] To test this theory, preliminary assays were performed with supercoiled pBlusecript plasmid DNA (“pBS”) as the template, and dithiothreitol (“DTT”) as the reductive initiator. […] Then 2.5 μL 10 mM DTT stock solution was added to the assay solution, and the assay was incubated an additional 1 hour at 37° C. DNA fragmentation was assessed by electrophoresis on a 1% agarose gel stained with ethidium bromide.
To test this theory, assays were performed with supercoiled pblusecript plasmid DNA (“pBS”) as the template, and dithiothreitol (“DTT”) as the reductive initiator. […] 2.5 μL 10 mM DTT stock solution was added to the assay solution, and the assay was incubated an additional 1 hour at 37° C.
DNA fragmentation was assessed by electrophoresis on a 1% agarose gel stained with ethidium bromide.

CCN[C@H]1CO[C@@H](O[C@H]2[C@H](O[C@H]3C#C/C=C/C#C[C@@]4(O)CC(=O)C(NC(=O)OC)=C3/C4=C\CSSSC)O[C@H](C)[C@@H](NO[C@H]3C[C@H](O)[C@H](SC(=O)c4c(C)c(I)c(O[C@@H]5O[C@@H](C)[C@H](O)[C@@H](OC)[C@H]5O)c(OC)c4OC)[C@@H](C)O3)[C@@H]2O)C[C@@H]1OC [Calicheamicinγ1^l, calicheamicin γ1^I]
detection of agent by the assay (sensitivity range) (break light A; 3.2 nM break light A, conditions described): pM range
maximum fluorescence upon cleavage, compared with DNaseI (break light A; 3.2 nM break light A, excess DTT): identical to that observed with DNaseI
Turnover (Vmax/[Agent]) (break light A; [DNA]total = 3.2 nM): 0.007 s⁻¹
Vmax (break light A; [DNA]total = 3.2 nM, 37° C.): 0.011 ± 0.002^d nM sec^−1
Comparison to EDTA (fold enhancement over EDTA turnover) (break light A; [DNA]total = 3.2 nM, MPE as common agent): 4.8 × 10^5 fold
enhancement of cleavage efficiency over bleomycin (break light A; from Table 1): ~10 fold
rate of cleavage of break light B compared with break light A (break light B): rate identical to that of break light A
DNA cleavage ([1]; calicheamicin in the absence of DTT (lane a)): no DNA cleavage
DNA cleavage ([1]; presence of DTT and calicheamicin (lane c)): efficient cleavage
